Values of other authors as cited in publication PMC12304798 (British Journal of Clinical Pharmacology, 2025).
Read-outs that look alike come from different tables or passages of the source.

Tests used:
NE activity [1] = conditions: once-daily doses, healthy volunteers
NE activity [2] = tested on: NE activity
[3] = healthy Japanese and Caucasian volunteers

| Compound | reduction in NE activity (NE activity [1]) | inhibitory effect on NE activity (NE activity [2]; brensocatib 10 mg) [%] | inhibitory effect on NE activity (NE activity [2]; brensocatib 25 mg) [%] | skin exfoliation, share of volunteers [3] [%] |
| --- | --- | --- | --- | --- |
| CC[C@@H](/C=C/C(=O)N1CCc2ccccc21)NC(=O)C1(N)CCOCC1 [GSK2793660] | approximately 20% | – | – | – |
| Cn1c(=O)oc2ccc(-c3ccc(C[C@@H](C#N)NC(=O)[C@@H]4CNCCCO4)cc3)cc21 [brensocatib] | – | 30 | 49 | 10 |
